From ChEMBL document CHEMBL3112450, “Synthesis and in vitro antitumor evaluation of primary amine substituted quinazoline linked benzimidazole” (Bioorg Med Chem Lett, 2014)

Columns and labels:
Type in all cases: functional
[1] = Cytotoxicity against human EKVX cells assessed as cell growth at 10^-5 M after 48 hrs by SRB assay; details: read-out: Activity
[2] = system: MCF7; test: Cytotoxicity against human MCF7 cells assessed as cell growth at 10^-4 M after 48 hrs by SRB assay; details: MCF7, 48 h, read-out: Activity
[3] = system: COLO 205; test: Cytotoxicity against human COLO205 cells assessed as cell growth at 10^-8 M after 48 hrs by SRB assay; details: COLO 205, 48 h, read-out: Activity
[4] = system: SF-539; test: Cytotoxicity against human SF539 cells assessed as cell growth at 10^-6 M after 48 hrs by SRB assay; details: SF-539, 48 h, read-out: Activity
[5] = system: MCF7; test: Cytotoxicity against human MCF7 cells assessed as cell growth at 10^-6 M after 48 hrs by SRB assay; details: MCF7, 48 h, read-out: Activity
[6] = system: NCI-H322M; test: Cytotoxicity against human NCI-H322M cells assessed as cell growth at 10^-7 M after 48 hrs by SRB assay; details: read-out: Activity
[7] = system: HL-60(TB); test: Cytotoxicity against human HL-60(TB) cells assessed as cell growth at 10^-8 M after 48 hrs by SRB assay; details: HL-60, 48 h, read-out: Activity
[8] = system: DU-145; test: Cytotoxicity against human DU145 cells assessed as cell growth at 10^-7 M after 48 hrs by SRB assay; details: DU-145, 48 h, read-out: Activity
[9] = system: DU-145; test: Cytotoxicity against human DU145 cells assessed as cell growth at 10^-8 M after 48 hrs by SRB assay; details: DU-145, 48 h, read-out: Activity
[10] = system: COLO 205; test: Cytotoxicity against human COLO205 cells assessed as cell growth at 10^-6 M after 48 hrs by SRB assay; details: COLO 205, 48 h, read-out: Activity
[11] = system: HOP-62; test: Cytotoxicity against human HOP62 cells after 48 hrs by SRB assay; details: HOP-62, 48 h
[12] = system: SN12C; test: Cytotoxicity against human SN12C cells after 48 hrs by SRB assay
[13] = system: SK-MEL-5; test: Cytotoxicity against human SK-MEL-5 cells assessed as cell growth at 10^-6 M after 48 hrs by SRB assay; details: SK-MEL-5, 48 h, read-out: Activity
[14] = system: KM12; test: Cytotoxicity against human KM12 cells after 48 hrs by SRB assay; details: KM12, 48 h
[15] = system: 786-0; test: Cytotoxicity against human 786-0 cells assessed as cell growth at 10^-6 M after 48 hrs by SRB assay; details: 786-0, 48 h, read-out: Activity
[16] = Cytotoxicity against human UO31 cells assessed as cell growth at 10^-8 M after 48 hrs by SRB assay; details: UO-31, 48 h, read-out: Activity
[17] = system: RPMI-8226; test: Cytotoxicity against human RPMI8226 cells assessed as cell growth at 10^-7 M after 48 hrs by SRB assay; details: RPMI-8226, 48 h, read-out: Activity
[18] = system: BT-549; test: Cytotoxicity against human BT549 cells assessed as cell growth at 10^-6 M after 48 hrs by SRB assay; details: BT-549, 48 h, read-out: Activity
[19] = system: LOX IMVI; test: Cytotoxicity against human LOXIMVI cells assessed as cell growth at 10^-7 M after 48 hrs by SRB assay; details: read-out: Activity
[20] = system: UACC-62; test: Cytotoxicity against human UACC62 cells assessed as cell growth at 10^-6 M after 48 hrs by SRB assay; details: UACC-62, 48 h, read-out: Activity
[21] = system: HCT-15; test: Cytotoxicity against human HCT15 cells assessed as cell growth at 10^-8 M after 48 hrs by SRB assay; details: HCT-15, 48 h, read-out: Activity
[22] = system: OVCAR-3; test: Cytotoxicity against human OVCAR3 cells assessed as cell growth at 10^-6 M after 48 hrs by SRB assay; details: OVCAR-3, 48 h, read-out: Activity
[23] = system: SW-620; test: Cytotoxicity against human SW620 cells assessed as cell growth at 10^-4 M after 48 hrs by SRB assay; details: SW-620, 48 h, read-out: Activity
[24] = system: HOP-92; test: Cytotoxicity against human HOP92 cells after 48 hrs by SRB assay; details: HOP-92, 48 h
[25] = system: A498; test: Cytotoxicity against human A498 cells assessed as cell growth at 10^-8 M after 48 hrs by SRB assay; details: A498, 48 h, read-out: Activity
[26] = system: RXF 393; test: Cytotoxicity against human RXF393 cells assessed as cell growth at 10^-6 M after 48 hrs by SRB assay; details: RXF 393, 48 h, read-out: Activity
[27] = system: CAKI-1; test: Cytotoxicity against human Caki1 cells assessed as cell growth at 10^-6 M after 48 hrs by SRB assay; details: CAKI-1, 48 h, read-out: Activity
[28] = system: LOX IMVI; test: Cytotoxicity against human LOXIMVI cells assessed as cell growth at 10^-6 M after 48 hrs by SRB assay; details: read-out: Activity
[29] = system: ACHN; test: Cytotoxicity against human ACHN cells after 48 hrs by SRB assay
[30] = system: MDA-MB-231; test: Cytotoxicity against human MDA-MB-231 cells assessed as cell growth at 10^-4 M after 48 hrs by SRB assay; details: MDA-MB-231, 48 h, read-out: Activity
[31] = Cytotoxicity against human OVCAR5 cells assessed as cell growth at 10^-7 M after 48 hrs by SRB assay; details: OVCAR-5, 48 h, read-out: Activity
[32] = system: HCC 2998; test: Cytotoxicity against human HCC2998 cells assessed as cell growth at 10^-8 M after 48 hrs by SRB assay; details: HCC 2998, 48 h, read-out: Activity
[33] = system: HOP-62; test: Cytotoxicity against human HOP62 cells assessed as cell growth at 10^-4 M after 48 hrs by SRB assay; details: HOP-62, 48 h, read-out: Activity
[34] = system: OVCAR-8; test: Cytotoxicity against human OVCAR8 cells assessed as cell growth at 10^-6 M after 48 hrs by SRB assay; details: OVCAR-8, 48 h, read-out: Activity
[35] = system: CAKI-1; test: Cytotoxicity against human Caki1 cells assessed as cell growth at 10^-4 M after 48 hrs by SRB assay; details: CAKI-1, 48 h, read-out: Activity
[36] = system: M14; test: Cytotoxicity against human M14 cells assessed as cell growth at 10^-7 M after 48 hrs by SRB assay; details: M14, 48 h, read-out: Activity
[37] = system: K562; test: Cytotoxicity against human K562 cells assessed as cell growth at 10^-7 M after 48 hrs by SRB assay; details: K562, 48 h, read-out: Activity
[38] = system: SK-MEL-2; test: Cytotoxicity against human SK-MEL-2 cells assessed as cell growth at 10^-4 M after 48 hrs by SRB assay; details: SK-MEL-2, 48 h, read-out: Activity
[39] = system: A498; test: Cytotoxicity against human A498 cells assessed as growth inhibition at 10 uM after 48 hrs by SRB assay; details: A498, 48 h, read-out: GI

In the case of C=CCn1c(C)nc2ccc(Nc3nc(NCCO)nc4ccccc34)cc21, the growth at 10 µM [1] is reported as 95.5%.
C=CCn1c(C)nc2ccc(Nc3nc(Nc4ccc5nc(C)n(CC=C)c5c4)c4ccccc4n3)cc21 showed a growth at 100 µM [2] of -22%, a growth at 0.01 µM [3] of 105% and a growth at 1 µM [4] of 94%. It also gave a growth at 1 µM [5] of 85%, a growth at 0.1 µM [6] of 90% and a growth at 0.01 µM [7] of 97%. For the same molecule, the growth at 0.1 µM [8] was 100%, the growth at 0.01 µM [9] was 102% and the growth at 1 µM [10] was 78%. For the same molecule, the GI50 [11] was 1630 nM, the TGI [11] was 2980 nM and the GI50 [12] was 1620 nM. For the same molecule, the LC50 [12] was 5450 nM, the TGI [12] was 2980 nM and the growth at 1 µM [13] was 91%. For the same molecule, the GI50 [14] was 1640 nM, the TGI [14] was 3080 nM and the growth at 1 µM [15] was 92%. It also gave a growth at 0.01 µM [16] of 84%, a growth at 0.1 µM [17] of 99% and a growth at 1 µM [18] of 86%. For the same molecule, the growth at 0.1 µM [19] was 91%, the growth at 1 µM [20] was 86% and the growth at 0.01 µM [21] was 96%. It also gave a growth at 1 µM [22] of 94%, a growth at 100 µM [23] of -17% and a GI50 [24] of 1370 nM. It also gave a TGI [24] of 2930 nM, a growth at 0.01 µM [25] of 69% and a growth at 1 µM [26] of 99%. For the same molecule, the growth at 1 µM [27] was 90%, the growth at 1 µM [28] was 83% and the GI50 [29] was 1640 nM. The LC50 [29] was 5510 nM, the TGI [29] was 3010 nM and the growth at 100 µM [30] was -63%. The growth at 0.1 µM [31] was 91%, the growth at 0.01 µM [32] was 92% and the growth at 100 µM [33] was -36%. The growth at 1 µM [34] was 80%, the growth at 100 µM [35] was -28% and the growth at 0.1 µM [36] was 94%. For the same molecule, the growth at 0.1 µM [37] was 94% and the growth at 100 µM [38] was -25%.
C=CCn1c(C)nc2cc(Nc3nc(Nc4ccc5nc(C)n(CC=C)c5c4)c4ccccc4n3)ccc21 showed a growth at 100 µM [2] of 3%, a growth at 0.01 µM [3] of 101% and a growth at 1 µM [4] of 56%. For the same molecule, the growth at 1 µM [5] was -63%, the growth at 0.1 µM [6] was 91% and the growth at 0.01 µM [7] was 98%. The growth at 0.1 µM [8] was 99%, the growth at 0.01 µM [9] was 99% and the growth at 1 µM [10] was -75%. The GI50 [11] was 232 nM, the TGI [11] was 552 nM and the GI50 [12] was 1280 nM. The TGI [12] was 2900 nM, the growth at 1 µM [13] was 78% and the GI50 [14] was 223 nM. For the same molecule, the LC50 (concentration killing 50% of cells) [14] was 1460 nM, the TGI [14] was 513 nM and the growth at 1 µM [15] was -78%. For the same molecule, the growth at 0.01 µM [16] was 85%, the growth at 0.1 µM [17] was 100% and the growth at 1 µM [18] was 93%. For the same molecule, the growth at 0.1 µM [19] was 96%, the growth at 1 µM [20] was 66% and the growth at 0.01 µM [21] was 101%. It also gave a growth at 1 µM [22] of -78%, a growth at 100 µM [23] of -8% and a GI50 [24] of 780 nM. It also gave an LC50 [24] of 4690 nM, a TGI [24] of 2080 nM and a growth at 0.01 µM [25] of 101%. For the same molecule, the growth at 1 µM [26] was 22%, the growth at 1 µM [27] was 88% and the growth at 1 µM [28] was -85%. It also gave a GI50 [29] of 610 nM, a TGI [29] of 1830 nM and a growth at 100 µM [30] of -46%. For the same molecule, the growth at 0.1 µM [31] was 95%, the growth at 0.01 µM [32] was 99% and the growth at 100 µM [33] was -38%. It also gave a growth at 1 µM [34] of -11%, a growth at 100 µM [35] of -54% and a growth at 0.1 µM [36] of 98%. The growth at 0.1 µM [37] was 99% and the growth at 100 µM [38] was -17%.
C=CCn1c(C)nc2cc(Nc3nc(NCCO)nc4ccccc34)ccc21 gave an inhibition of growth at 10 µM [39] of 40%.
